Results taken from patent US8383616B2, “Aryl isoxazole compounds with antitumoural activities” (Sigma-Tau Industrie Farmaceutiche Riunite SpA, priority 2008, dated 2013).

Assays:
[1] = tested on: NCI-H460 non-small cell lung carcinoma cells; test: Cytotoxicity assay (sulphorodamine B test), NCI-H460; assay type: cell-based
Experimental: To evaluate the effect of the compounds on cells survival, the sulphorodamine B test was used. To test the effects of the compounds on cell growth, NCI-H460 non-small cell lung carcinoma cells were used. Tumour cells were grown in RPMI 1640 containing 10% fetal bovine serum (GIBCO).
(§1) Tumour cells were seeded in 96-well tissue culture plates at approximately 10% confluence and were allowed to attach and recover for at least 24 h. Varying concentrations of the drugs were then added to each well to calculate their IC50 value (the concentration which inhibits the 50% of cell survival). The plates were incubated at 37° C. for 72 h. At the end of the treatment, the plates were washed by removal of the supernatant and addition of phosphate buffered saline (PBS) 3 times. 200 μl PBS and 50 μl of cold 80% trichloroacetic acid (TCA) were added. The plates were incubated on ice for at least 1 h. TCA was removed, the plates were washed 3 times by immersion in distilled water and dried on paper and at 40° C. for 5 min. Then 200 μl of 0.4% sulphorodamine B in 1% acetic acid were added. The plates were incubated at RT for 30 min. Sulphorodamine B was removed, the plates were washed by immersion in 1% acetic acid for 3 times, then they were dried on paper and at 40° C. for 5 min. Then, 200 μl Tris 10 mM were added, the plates were kept under stirring for 20 min. The cell survival was determined as optical density by a Multiskan spectrofluorimeter at 540 nm. The amount of cells killed was calculated as the percentage decrease in sulphorodamine B binding compared with control cultures.
(§2) The IC50 values were calculated with the “ALLFIT” program.
(§3) The antiproliferative IC50 was evaluated as drug concentration required for 50% reduction of cell growth as compared with untreated controls after 72-h exposure to the drug. The IC50±SD values reported were calculated by ALLFIT program.

[2] = tested on: human epithelial carcinoma cell line A431; test: Cytotoxicity assay (sulphorodamine B test), A431; assay type: cell-based
Experimental: as §1, §2
The antiproliferative activity of novel Hsp90 inhibitors was evaluated on NCI-H460 non-small cell lung carcinoma cells and on a human epithelial carcinoma cell line A431.
as §3

Hsp90 = target: T1, Hsp90 (Homo sapiens, UniProt P07900); test: Fluorescence polarization (FP) binding assay, displacement of GM-BODIPY; conditions: GM-BODIPY tracer, 125 nM Hsp90, 4 h at 4° C.; read-out: F.P. binding assay IC50
T1 construct: purchased Stressgen SPP-776
Experimental: Fluorescence Polarization (FP)
GM-BODIPY (PerkinElmer, CUSN60342000MG) was previously dissolved in DMSO to obtain 10 mM stock solutions and kept at −20° C. until use.
The compounds were previously dissolved in DMSO to obtain stock solutions and kept at −20° C. The day of experiment, the compounds were prepared by serial dilutions in HFB. Before each use, 0.1 mg/ml Bovine Gamma globulin and 2 mM DTT were freshly added.
The plate was mixed on a shaker at 4° C. for 4 hours, and the FP values in mP (millipolarization units) were recorded. […] Curve fitting was performed using Prism GraphPad software program (GraphPad software, Inc., San Diego, Calif.).
Curve fitting was performed using Prism GraphPad software program (GraphPad software, Inc., San Diego, Calif.).

[3] = Homo sapiens, NCI-H460, 72-h exposure
[4] = Homo sapiens, A-431, 72-h exposure

Compound	IC50 [1, 3] [nM]	IC50 [2, 4] [nM]	IC50 (Hsp90) [nM]	IC50 ([1]; 72-h exposure) [nM]	IC50 ([2]; 72-h exposure) [nM]
CCNC(=O)c1noc(-c2cc(C(C)C)c(O)cc2O)c1NC(=O)CCN1CCN(C)CC1 [Example 16, 4-(3-(4-methylpiperazin-1-yl)propanamido)-N-ethyl-5-(2,4-dihydroxy-5-isopropylphenyl)-isoxazole-3-carboxamide]	1000 to 10000	100 to 1000	100 to 1000		
CCNC(=O)c1noc(-c2cc(C(C)C)c(O)cc2O)c1NC(=O)C1CCC(C(F)(F)F)CC1 (stereo not drawn) [Example 21, 5-(2,4-dihydroxy-5-isopropyl-phenyl)-4-[(4-trifluoromethyl-cyclohexanecarbonyl)-amino]-isoxazole-3-carboxylic acid ethylamide]	< 100	< 100	100 to 1000		
CCNC(=O)c1noc(-c2cc(Cl)c(O)cc2O)c1NC(=O)c1sccc1C [Example 8, 5-(5-chloro-2,4-dihydroxy-phenyl)-4-[(3-methyl-thiophene-2-carbonyl)-amino]-isoxazole-3-carboxylic acid ethylamide]	100 to 1000	< 100	< 100		
CCNC(=O)c1noc(-c2cc(Cl)c(O)cc2O)c1NC(=O)CCN1CCOCC1 [Example 9, 5-(5-chloro-2,4-dihydroxy-phenyl)-4-(3-morpholin-4-yl-propionylamino)-isoxazole-3-carboxylic acid ethylamide]	100 to 1000	100 to 1000	100 to 1000		
CCNC(=O)c1noc(-c2cc(Cl)c(O)cc2O)c1NCc1cc(CO)no1 [Example 32, 4-((3-(hydroxymethyl)isoxazol-5-yl)methylamino)-5-(5-chloro-2,4-dihydroxyphenyl)-N-ethylisoxazole-3-carboxamide]	1000 to 10000	1000 to 10000	100 to 1000		
CCNC(=O)c1noc(-c2cc(Cl)c(O)cc2O)c1NC(=O)C(C)(C)C [Example 5, 5-(5-chloro-2,4-dihydroxy-phenyl)-4-(2,2-dimethyl-propionylamino)-isoxazole-3-carboxylic acid ethylamide]	100 to 1000	< 100	< 100		
CCNC(=O)c1noc(-c2cc(C(C)C)c(O)cc2O)c1NC(=O)c1ccc2cc[nH]c2c1 [Example 17, 1H-indole-6-carboxylic acid [5-(2,4-dihydroxy-5-isopropyl-phenyl)-3-ethylcarbamoyl-isoxazol-4-yl]-amide]	100 to 1000	100 to 1000	< 100		
CCNC(=O)c1noc(-c2cc(Cl)c(O)cc2O)c1NC(=O)c1ccc(OC)c(OC)c1 [Example 3, 5-(5-chloro-2,4-dihydroxy-phenyl)-4-(3,4-dimethoxy-benzoylamino)-isoxazole-3-carboxylic acid ethylamide]	1000 to 10000	100 to 1000	100 to 1000		
CCNC(=O)c1noc(-c2cc(Cl)c(O)cc2O)c1NC(C)=O [Example 1, 4-acetylamino-5-(5-chloro-2,4-dihydroxy-phenyl)-isoxazole-3-carboxylic acid ethylamide]	1000 to 10000	1000 to 10000	< 100		
CCNC(=O)c1noc(-c2cc(Cl)c(O)cc2O)c1NC1CCN(C)CC1 [Example 30, 4-(1-methylpiperidin-4-ylamino)-5-(5-chloro-2,4-dihydroxyphenyl)-N-ethylisoxazole-3-carboxamide]	1000 to 10000	1000 to 10000	1000 to 10000		
CCNC(=O)c1noc(-c2cc(C(C)C)c(O)cc2O)c1NC(=O)C1CCCCC1 [Example 19, 4-(cyclohexanecarbonyl-amino)-5-(2,4-dihydroxy-5-isopropyl-phenyl)-isoxazole-3-carboxylic acid ethylamide]	< 100	< 100	100 to 1000		
CCNC(=O)c1noc(-c2cc(Cl)c(O)cc2O)c1NCc1sccc1C [Example 28, 4-((3-methylthiophen-2-yl)methylamino)-5-(5-chloro-2,4-dihydroxyphenyl)-N-ethylisoxazole-3-carboxamide]	1000 to 10000	1000 to 10000	100 to 1000		
CCNC(=O)c1noc(-c2cc(Cl)c(O)cc2O)c1NC(=O)c1cc(OC)c(OC)c(OC)c1 [Example 4, 5-(5-chloro-2,4-dihydroxy-phenyl)-4-(3,4,5-trimethoxy-benzoylamino)-isoxazole-3-carboxylic acid ethylamide]	100 to 1000	100 to 1000	100 to 1000		
CCNC(=O)c1noc(-c2cc(Cl)c(O)cc2O)c1NCc1cc(C(=O)OC)no1 [Example 31, Methyl 5-((3-(ethylcarbamoyl)-5-(5-chloro-2,4-dihydroxyphenyl)isoxazol-4-ylamino)methyl)isoxazole-3-carboxylate]	1000 to 10000	1000 to 10000	< 100		
CCNC(=O)c1noc(-c2cc(Cl)c(O)cc2O)c1NC(=O)C12CC3CC(CC(C3)C1)C2 [Example 6, 4-[(adamantane-1-carbonyl)-amino]-5-(5-chloro-2,4-dihydroxy-phenyl)-isoxazole-3-carboxylic acid ethylamide]	100 to 1000	100 to 1000	100 to 1000		
5-(2,4-dihydroxy-5-isopropyl-phenyl)-4-(4-morpholin-4-yl-methyl-benzoyl amino)-isoxazole-3-carboxylic acid ethylamide hydrochloride [Example 18]			< 100	< 100	< 100
CCNC(=O)c1noc(-c2cc(C(C)C)c(O)cc2O)c1NC(=O)c1sccc1C [Example 14, 5-(2,4-dihydroxy-5-isopropyl-phenyl)-4-[(3-methyl-thiophene-2-carbonyl)-amino]-isoxazole-3-carboxylic acid ethylamide]	< 100	< 100	< 100		
CCNC(=O)c1noc(-c2cc(Cl)c(O)cc2O)c1NC(=O)c1ccc(OC)cc1 [Example 2, 5-(5-chloro-2,4-dihydroxy-phenyl)-4-(4-methoxy-benzoylamino)-isoxazole-3-carboxylic acid ethylamide]	1000 to 10000	100 to 1000	100 to 1000		
CCNC(=O)c1noc(-c2cc(Cl)c(O)cc2O)c1NC1CCCCC1 [Example 29, 5-(5-chloro-2,4-dihydroxyphenyl)-4-(cyclohexylamino)-N-ethylisoxazole-3-carboxamide]	1000 to 10000	1000 to 10000	100 to 1000		
CCCCC[C@H]1CC[C@H](C(=O)Nc2c(C(=O)NCC)noc2-c2cc(C(C)C)c(O)cc2O)CC1 [Example 20, 5-(2,4-dihydroxy-5-isopropyl-phenyl)-4-[(trans-4-pentyl-cyclohexanecarbonyl)-amino]-isoxazole-3-carboxylic acid ethylamide]	1000 to 10000	1000 to 10000	100 to 1000		
CCNC(=O)c1noc(-c2cc(Cl)c(O)cc2O)c1NCc1ccc(OC)cc1 [Example 27, 4-(4-methoxybenzylamino)-5-(5-chloro-2,4-dihydroxyphenyl)-N-ethylisoxazole-3-carboxamide]	1000 to 10000	1000 to 10000	100 to 1000		
COc1ccc(C(=O)Nc2c(C(=O)NCC(F)(F)F)noc2-c2cc(Cl)c(O)cc2O)cc1 [Example 33, 4-(4-methoxybenzamido)-5-(5-chloro-2,4-dihydroxyphenyl)-N-(2,2,2-trifluoroethyl)-isoxazole-3-carboxamide]	1000 to 10000	100 to 1000	100 to 1000		
